Test results taken from US20250164468A1, “Method for Cellular Lifespan Measurement” (AGENCY FOR SCIENCE, TECHNOLOGY AND RESEARCH, priority 2022, published 2025).

How the values were obtained:
Format in all cases: cell-based, Saccharomyces cerevisiae
[1] = system: prototrophic yeast strain (CEN.PK113-7D); test: Propidium iodide fluorescence-based chronological lifespan (CLS) method in yeast, incl. high-throughput screening; details: for Yeast CLS increase / PI intensity: 100 μM tested; for Yeast CLS increase: Yes/No call; for PI intensity: chronological age point day 7 (72 h growth = day 1), lower PI = more survival
Experimental: Chronological lifespan (CLS) experiments were conducted in 96-well plates with 200 μL yeast culture. The prototrophic wild-type yeast strain (CEN.PK113-7D) and snf1Δ deletion strains were grown in the SD medium in 96-well plates at 30° C. Saccharomyces cerevisiae BY4743 strain was grown in the SD medium supplemented with histidine (40 mg/L), leucine (160 mg/L), and uracil (40 mg/L) in 96-well plates at 30° C. For assays testing the effect of rapamycin, cellular inoculum was transferred into 96-well plates containing serially double-diluted concentrations (0 to 10 nM) of rapamycin. […] Likewise, cellular inoculum was transferred into the 96-well plates containing serially double-diluted concentrations (0-8 mM) of D-fructose, D-mannitol, D-maltose, and D-sorbitol. Cells were incubated at 30° C., and the growth was measured at different time points. […] Cell survival was quantified at various age time points by three different approaches: (i) propidium iodide fluorescence-based method, (ii) outgrowth in YPD liquid medium and (iii) spotting assay (FIG. 1).
40 μL yeast cells on different age time points were transferred into a 96-well plate different to the 96-well plate in which the CLS analysis was performed. Cells were washed and incubated in 100 μL 1×PBS with PI (5 μg/mL) for 15 minutes in the dark. Positive and negative sample control were included for quantitative analysis. Positive control (cells boiled at 100° C. for 15 min) was PI-stained and processed in the same 96-well plate. Samples without PI-stained cells served as the negative control. After incubation, cells were washed and resuspended in 100 μL PBS. The fluorescence reading of the samples (excitation at 535 nm, emission at 617 nm) and OD600 nm were measured by a microplate reader (BioTek, Winooski, Vermont, United States). The fluorescence intensity of each sample was normalized with OD600 nm. The normalized fluorescence intensity of each sample was subtracted from the background signal of the unstained negative sample. The obtained fluorescence intensity of the positive control sample (boiled dead cells) was considered 0% cell survival. […] Cell survival of different age time point samples were calculated by normalizing the fluorescence intensity with positive control sample (boiled cells).
The prototrophic yeast strain (CEN.PK113-7D) was grown in the synthetic defined medium with indicated concentrations of rapamycin in 96-well plates at 30° C. A total of 30 samples of individual rapamycin concentration was tested with DMSO control (0 nM rapamycin) for Z-factor analysis. […] The chronological lifespan of the aged cells was determined by the outgrowth method in YPD liquid medium. […] At chronological age point day 4, 3 μL culture were transferred to a second 96-well plate containing 200 μL YPD medium. […] The CLS of different concentrations of rapamycin incubated cells was determined using the propidium iodide fluorescence-based method (FIG. 2C). […] Z-factor of different concentrations of rapamycin was analyzed using the formula Z=1−[3×(standard deviation of control sample+standard deviation of rapamycin sample)/(mean of control sample−mean of rapamycin sample)].
High-throughput screening of various chemicals was tested using the same protocol for the propidium iodide fluorescence-based method as described above. The prototrophic yeast strain (CEN.PK113-7D) was grown in the synthetic defined medium with different chemical reagents with a single testing concentration (Table 1) in addition to eight replicates of DMSO and water controls in 96-well plates at 30° C.

[2] = system: prototrophic yeast strain (CEN.PK113-7D); test: Yeast cell growth (OD600 nm) with rapamycin in SD medium
Experimental: Chronological lifespan (CLS) experiments were conducted in 96-well plates with 200 μL yeast culture. The prototrophic wild-type yeast strain (CEN.PK113-7D) and snf1Δ deletion strains were grown in the SD medium in 96-well plates at 30° C. Saccharomyces cerevisiae BY4743 strain was grown in the SD medium supplemented with histidine (40 mg/L), leucine (160 mg/L), and uracil (40 mg/L) in 96-well plates at 30° C. For assays testing the effect of rapamycin, cellular inoculum was transferred into 96-well plates containing serially double-diluted concentrations (0 to 10 nM) of rapamycin. For calorie restriction assay, cellular inoculums were prepared in SD medium containing 2% w/v, 0.5% w/v, and 0.25% w/v glucose and transferred to 96-well plates. […] Cells were incubated at 30° C., and the growth was measured at different time points. […] Cell survival was quantified at various age time points by three different approaches: (i) propidium iodide fluorescence-based method, (ii) outgrowth in YPD liquid medium and (iii) spotting assay (FIG. 1).
The effect of rapamycin on the CLS of a yeast strain was studied to examine the validity of the inventive protocol. […] Cells were aged with different concentrations of rapamycin in the SD medium and their respective growth at different time points (24 hours, 48 hours and 72 hours) were measured. […]

[3] = system: prototrophic yeast strain (CEN.PK113-7D); test: Yeast outgrowth in YPD liquid medium (CLS of aged cells); details: 100 μM tested; outgrowth OD600 nm in YPD after 24 h, age point day 14
Experimental: This quantification was performed by using the formula,
The CLS of the aged cells was further determined by the yeast outgrowth in YPD liquid medium method as described above. […] At chronological age point day 14, 3-μL of culture were transferred to a second 96-well plate containing 200 μL YPD medium.

Molecule: O=C(Oc1nc2[nH]c(=O)[nH]c(=O)c2[nH]1)c1cccnc1 [Xanthinol Nicotinate]
- Yeast CLS increase [1]: No

Molecule: CO[C@H]1C[C@@H]2CC[C@@H](C)[C@@](O)(O2)C(=O)C(=O)N2CCCC[C@H]2C(=O)O[C@H]([C@H](C)C[C@@H]2CC[C@@H](O)[C@H](OC)C2)CC(=O)[C@H](C)/C=C(\C)[C@@H](O)[C@@H](OC)C(=O)[C@H](C)C[C@H](C)/C=C/C=C/C=C/1C [Rapamycin]
- survival of aged cells ([1]; 5 nM and 10 nM, day 4 (without rapamycin approx. 50%)): approximately 75%
- survival of aged cells ([1]; day 7 (without rapamycin less than 20%)): approximately 70%
- time to cell growth saturation ([2]; 5 nM or less rapamycin): approximately 24 hours
- time to cell growth saturation ([2]; 10 nM rapamycin (slowed cell growth)): 48 h

Molecule: O=C(O)[C@@H]1CCCN1 [I-pyrrolidine-2-carboxylic acid]
- Yeast CLS increase [1]: No
- PI intensity [1]: 80,551.7
- Outgrowth [3]: 0.1

Molecule: OC[C@H]1O[C@H](CO)[C@@H](O)[C@@H]1O [2,5-anhydromannitol, 2,5-anhydro-D-mannitol]
- extension of CLS of yeasts ([1]; screen, PI method): extend the CLS of yeasts

Molecule: Aliskiren (hemiumarate)
- PI intensity [1]: 73,607.3
